In patent US8895581B2, “1H-imidazo[4,5-c]quinolines” (Boehringer Ingelheim International GmbH, priority 2010, dated 2014):

molecular target: Recombinant human PDK1 enzyme (aa 52-556) (Homo sapiens (Human), UniProt O15530); test: PDK1 kinase assay; assay type: biochemical; details: 25 μM ATP solution with gamma-P33-ATP, PDKtide substrate, 90 min at RT
Description: The activity of the compounds according to the invention on the kinase PDK1 which inhibits the signal transduction pathway is determined in an in vitro kinase assay with recombinantly prepared protein:
Recombinant human PDK1 enzyme (aa 52-556) linked at its N-terminal end to His6 is isolated from baculovirus-infected insect cells. Purified enzyme may be obtained for example from the University of Dundee, Scotland. The following components are combined in a well of a 96-well round-based dish (Greiner bio-one, No. 650101): • 1. 15 μL of compound to be tested in varying concentrations (e.g. starting at 10 μM, and diluted in steps of 1:5) in APT buffer (50 mM Tris/Cl pH7.5; 0.05% β-mercaptoethanol; 10 mM Mg-acetate; 0.0166% Tween 20; 3.33% DMSO) • 2. 15 μL His6-PDK1 (aa 52-556) 3.33 ng/well) and PDKtide (KTFCGTPEYLAPEVRRE […]), synthesised by Pepceuticals Limited, Nottingham, United Kingdom; 25 μM final concentration); His6-PDK1 and PDKtide are together diluted accordingly in assay buffer (50 mM tris pH 7.5, 0.05% β-mercaptoethanol, 10 mM Mg-acetate); PDKtide is present in this mixture as an 83.3 μM solution. These 30 μl are routinely incubated for 30 min at RT. • 3. 20 μL ATP solution (25 μM ATP with 1.0 μCi/well gamma-P33-ATP). The final concentration of Tween 20 is 0.005%.
The reaction is started by adding the ATP solution and the mixture is incubated for 90 min at RT. At the start of the reaction the dishes are shaken gently. The reaction is stopped by the addition of 50 μL/well of 500 mM phosphoric acid (H3PO4) and incubated for about 20 min at RT. The precipitate is transferred by harvesting onto filter plates (96-well microtitre filter plate: UniFilter GF/C; Perkin Elmer; No. 6005174), then washed 6 times with 50 mM H3PO4 and dried at 60° C. Then the plate is stuck down with sealing tape, 25 μL/well of scintillation solution (Microscint 0; Perkin Elmer; No. 6013611) are added and the amount of P33 precipitated is measured using the Wallac Betacounter. The measured data are evaluated using Graphpad Prism software.

Chain of Recombinant human PDK1 enzyme (aa 52-556) (O15530 52-556): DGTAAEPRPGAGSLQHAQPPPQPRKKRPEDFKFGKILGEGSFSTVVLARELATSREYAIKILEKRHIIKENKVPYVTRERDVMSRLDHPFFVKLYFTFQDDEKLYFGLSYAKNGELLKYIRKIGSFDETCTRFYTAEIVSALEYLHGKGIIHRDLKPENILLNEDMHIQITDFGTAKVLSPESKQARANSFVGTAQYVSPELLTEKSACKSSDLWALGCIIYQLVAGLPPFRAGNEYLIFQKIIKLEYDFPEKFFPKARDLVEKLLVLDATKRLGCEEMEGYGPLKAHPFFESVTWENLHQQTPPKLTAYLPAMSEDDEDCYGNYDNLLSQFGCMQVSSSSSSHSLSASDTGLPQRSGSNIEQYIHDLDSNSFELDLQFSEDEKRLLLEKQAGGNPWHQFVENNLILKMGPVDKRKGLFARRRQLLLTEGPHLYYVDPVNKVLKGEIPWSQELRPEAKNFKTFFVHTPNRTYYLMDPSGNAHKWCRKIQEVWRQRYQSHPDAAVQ

Structure (SMILES) | IC50
CN1CC[C@@H](n2cnc3cnc4ccc(C#CCNC(=O)c5cccn(Cc6ccc(F)c(F)c6)c5=O)cc4c32)C1 [III-15] | 20 nM
CN1CC[C@H](n2cnc3cnc4ccc(C#CCNC(=O)c5cc(Cl)nn(Cc6ccc(F)c(F)c6)c5=O)cc4c32)C1 [III-16] | 11 nM
CN1CCC[C@@H](n2cnc3cnc4ccc(C#CCNC(=O)c5cc(Cl)nn(Cc6ccc(F)c(F)c6)c5=O)cc4c32)C1 [III-18] | 787 nM
Cc1c(C(=O)NCC#Cc2ccc3ncc4ncn(C5CCN(C(C)C)CC5)c4c3c2)c(=O)n(Cc2ccc(F)c(F)c2)n1C [III-19] | 45 nM
CCN1CCC(n2cnc3cnc4ccc(C#CCNC(=O)c5c(C)n(C)n(Cc6ccc(F)c(F)c6)c5=O)cc4c32)CC1 [III-20] | 32 nM
Cc1nc2cnc3ccc(C#CCNC(=O)c4c(C)n(C)n(Cc5ccc(F)c(F)c5)c4=O)cc3c2n1C1CCOCC1 [III-21] | 5 nM
O=C(NCC#Cc1ccc2ncc3ncn(C4CCOC4)c3c2c1)c1cccn([C@@H](CO)c2cccc(F)c2)c1=O (stereo partly drawn) [III-22] | 7 nM
Cc1nc2cnc3ccc(C#CCNC(=O)c4cccn([C@@H](C)c5ccc(F)c(F)c5)c4=O)cc3c2n1[C@H]1CC[C@H](N(C)C)CC1 [III-23] | 1 nM
Cc1nc2cnc3ccc(C#CCNC(=O)c4cccn([C@@H](CO)c5cccc(F)c5)c4=O)cc3c2n1[C@H]1CC[C@H](N(C)C)CC1 [III-24] | 3 nM
Cc1nc2cnc3ccc(C#CCNC(=O)c4cccn([C@@H](CO)c5cccc(F)c5)c4=O)cc3c2n1[C@H]1CC[C@@H](N(C)C)CC1 [III-25] | 4 nM
CN(C)[C@H]1CC[C@H](n2cnc3cnc4ccc(C#CCNC(=O)c5cccn([C@@H](CO)c6cccc(F)c6)c5=O)cc4c32)CC1 [III-26] | 1 nM
CN(C)[C@H]1CC[C@@H](n2cnc3cnc4ccc(C#CCNC(=O)c5cccn([C@@H](CO)c6cccc(F)c6)c5=O)cc4c32)CC1 [III-27] | 3 nM
Cc1nc2cnc3ccc(C#CCNC(=O)c4cncn(Cc5ccc(F)c(F)c5)c4=O)cc3c2n1C1CCCOC1 (stereo not drawn) [III-28] | 2 nM
NC[C@@H](c1ccccc1)n1cccc(C(=O)NCC#Cc2ccc3ncc4ncn(C5CCOC5)c4c3c2)c1=O (stereo partly drawn) [III-29] | 681 nM
Cn1cnc2cnc3ccc(C#CCNC(=O)c4cncn(Cc5ccc(F)c(F)c5)c4=O)cc3c21 [III-30] | 5 nM
CCn1cnc2cnc3ccc(C#CCNC(=O)c4cncn(Cc5ccc(F)c(F)c5)c4=O)cc3c21 [III-31] | 1 nM
CC(C)n1cnc2cnc3ccc(C#CCNC(=O)c4cncn(Cc5ccc(F)c(F)c5)c4=O)cc3c21 [III-32] | 2 nM
CCn1c(C)nc2cnc3ccc(C#CCNC(=O)c4cncn(Cc5ccc(F)c(F)c5)c4=O)cc3c21 [III-33] | 2 nM
Cc1nc2cnc3ccc(C#CCNC(=O)c4cncn(Cc5ccc(F)c(F)c5)c4=O)cc3c2n1C [III-34] | 8 nM
CCOc1cc(C(=O)NCC#Cc2ccc3ncc4ncn(C(C)C)c4c3c2)c(=O)n(Cc2ccc(F)c(F)c2)n1 [IV-1, 2-(3,4-difluorobenzyl)-6-ethoxy-3-oxo-2,3-dihydro-pyridazine-4-carboxylic acid [3-(1-isopropyl-1H-imidazo[4,5-c]quinolin-8-yl)-prop-2-ynyl]-amide] | 5 nM
CCOc1nc2cnc3ccc(C#CCNC(=O)c4cncn(Cc5ccc(F)c(F)c5)c4=O)cc3c2n1C [V-1, 1-(3,4-difluoro-benzyl)-6-oxo-1,6-dihydro-pyrimidine-5-carboxylic acid [3-(2-ethoxy-1-methyl-1H-imidazo[4,5-c]quinolin-8-yl)-prop-2-ynyl]-amide] | 33 nM
Cn1c(-c2ccccc2)nc2cnc3ccc(C#CCNC(=O)c4cncn(Cc5ccc(F)c(F)c5)c4=O)cc3c21 [V-2] | 72 nM
CCc1nc2cnc3ccc(C#CCNC(=O)c4cncn(Cc5ccc(F)c(F)c5)c4=O)cc3c2n1C [V-3] | 8 nM
COc1nc2cnc3ccc(C#CCNC(=O)c4cncn(Cc5ccc(F)c(F)c5)c4=O)cc3c2n1C [V-4] | 18 nM
COCCc1nc2cnc3ccc(C#CCNC(=O)c4cncn(Cc5ccc(F)c(F)c5)c4=O)cc3c2n1C [V-5, 1-(3,4-difluoro-benzyl)-6-oxo-1,6-dihydro-pyrimidine-5-carboxylic acid {3-[2-(2-methoxy-ethyl)-1-methyl-1H-imidazo[4,5-c]quinolin-8-yl]-prop-2-ynyl}-amide] | 24 nM
Cn1c(CF)nc2cnc3ccc(C#CCNC(=O)c4cncn(Cc5ccc(F)c(F)c5)c4=O)cc3c21 [V-6, 1-(3,4-difluoro-benzyl)-6-oxo-1,6-dihydro-pyrimidine-5-carboxylic acid [3-(2-fluoromethyl-1-methyl-1H-imidazo[4,5-c]quinolin-8-yl)-prop-2-ynyl]-amide] | 19 nM
COCc1nc2cnc3ccc(C#CCNC(=O)c4cncn(Cc5ccc(F)c(F)c5)c4=O)cc3c2n1C [V-7] | 41 nM
CN(C)Cc1nc2cnc3ccc(C#CCNC(=O)c4cncn(Cc5ccc(F)c(F)c5)c4=O)cc3c2n1C [V-8, 1-(3,4-difluoro-benzyl)-6-oxo-1,6-dihydro-pyrimidine-5-carboxylic acid [3-(2-dimethylaminomethyl-1-methyl-1H-imidazo[4,5-c]quinolin-8-yl)-prop-2-ynyl]-amide] | 79 nM
CN(C)CCCc1nc2cnc3ccc(C#CCNC(=O)c4cncn(Cc5ccc(F)c(F)c5)c4=O)cc3c2n1C [V-9] | 6 nM
CN(C)CCc1nc2cnc3ccc(C#CCNC(=O)c4cncn(Cc5ccc(F)c(F)c5)c4=O)cc3c2n1C [V-10] | 22 nM
